Measurements reported in ChEMBL document CHEMBL1125207, “Monoterpenic fragment analogues of aplasmomycin as potential antimalarial” (1991).

What was measured:
Format in all cases: functional
Plasmodium berghei [1] = assay: In vivo antimalarial activity against Plasmodium berghei in mice (Mus musculus) at 40 mg/kg dose as mean survival time after 60 days
Plasmodium berghei [2] = assay: In vivo antimalarial activity against Plasmodium berghei in mice (Mus musculus) at 20 mg/kg dose as mean survival time
Plasmodium berghei [3] = assay: In vivo antimalarial activity against Plasmodium berghei in mice (Mus musculus) at 160 mg/kg dose as mean survival time of mice (Mus musculus) after 60 days
Plasmodium berghei [4] = assay: In vivo antimalarial activity against Plasmodium berghei in mice (Mus musculus) at 160 mg/kg dose as mean survival time
Plasmodium berghei [5] = assay: In vivo antimalarial activity against Plasmodium berghei in mice (Mus musculus) at 40 mg/kg dose as mean survival time
Plasmodium berghei [6] = assay: In vivo antimalarial activity against Plasmodium berghei in mice (Mus musculus) at 80 mg/kg dose as mean survival time
Plasmodium berghei [7] = assay: In vivo antimalarial activity against Plasmodium berghei in mice (Mus musculus) at 20 mg/kg as mean survival time

SMILES | Mean survival time (Plasmodium berghei [1]) | Mean survival time (Plasmodium berghei [2]) | Mean survival time (Plasmodium berghei [3]) | Mean survival time (Plasmodium berghei [4]) | Mean survival time (Plasmodium berghei [5]) | Mean survival time (Plasmodium berghei [6]) | Mean survival time (Plasmodium berghei [7])
C[C@@H]1CC[C@H]2[C@@H](C)C(=O)O[C@@H]3O[C@@]4(C)CC[C@@H]1[C@]32OO4 [ARTEMISININ] | 30.6 days | 10.8 days |  |  |  |  | 
C[C@@H]1CC[C@H]2[C@@H](C)CO[B-]3(OC[C@H](C)[C@@H]4CC[C@@H](C)C[C@H]4O3)O[C@@H]2C1.[Na+] (stereo partly drawn) |  | 9 days | 28.6 days | 12.6 days | 9.6 days | 10.8 days | 
CCOC(=O)/C=C/C=C(\C)CCC1OC1(C)C (stereo not drawn) |  | 7.8 days | 30.4 days | 12.6 days | 8.6 days | 9.2 days | 
C[C@@H]1CC[C@@H]([C@@H](C)CO)[C@H](O)C1 |  |  |  | 8.2 days | 6.2 days | 7 days | 5.4 days
CCOC(=O)/C=C/C=C(C)C |  | 5.4 days |  | 8.8 days | 6 days | 7.4 days | 
CCOC(=O)C(O)C1OC(C(C)(C)O)CCC1C (stereo not drawn) |  |  |  | 11.4 days | 7.2 days | 8.4 days | 6.4 days
CCOC(=O)/C=C/CC(C)CCC=C(C)C (stereo not drawn) |  | 6 days | 29.6 days | 12.4 days | 8.2 days | 10.4 days | 
CCOC(=O)/C=C/C(C)CCC=C(C)C (stereo not drawn) |  | 5.4 days |  | 8 days | 6 days | 7.2 days | 
